Experimental data from patent publication US20120010075A1 (priority 2009, published 2012).
Read-outs that look alike come from different tables or passages of the source.

Tests used:
[1] = test system: Leptosphaeria nodorum (LEPTNO); test: Isolated metal-hydrazone complexes versus parent hydrazones, in vitro, Leptosphaeria nodorum (Example 31, Table 7); format: cell-based; conditions: Parastagonospora nodorum; 0.1 μg/mL; copper-minus medium; 72 h
Phytophthora capsici [2] = test: In vitro fungitoxicity of hydrazones with and without copper towards Phytophthora capsici (Example 28, Table 3); format: cell-based; conditions: 0.050 μg/mL, 48 h
Phytophthora infestans [3] = format: in vivo, Phytophthora infestans on tomato; conditions: hydrazone 50 ppm + 50 μM CuCl2.2H2O, applied 24 h before inoculation, assessed 7 days after inoculation, tomato
Ustilago maydis = test: In vitro fungitoxicity of hydrazones with and without copper towards Ustilago maydis (Example 29, Table 4); format: cell-based; conditions: 1 μg/mL, 48 h
[4] = test system: Leptosphaeria nodorum (LEPTNO); test: In vitro fungitoxicity of hydrazones with and without copper towards Leptosphaeria nodorum (Example 26); format: cell-based; conditions: compound 0.05 μg/mL, 72 h at 25° C.
[5] = test system: Septoria tritici isolate USA-184; test: In vitro fungitoxicity of hydrazones with and without copper towards Septoria tritici (Example 30, Table 5); format: cell-based; conditions: Zymoseptoria tritici, 0.05 μg/mL
Phytophthora capsici [6] = test: Fungitoxicity of copper-hydrazone mixtures of different ratios towards Phytophthora capsici (Example 36, Table 12); format: cell-based; conditions: Phytophthora capsici
Experimental: In vitro fungitoxicity assays against Phytophthora capsici were conducted using the copper-minus AS medium described in Example 28. Mixtures containing hydrazone compound 16 at 200 nM and CuCl2.2H2O at 0.2 μM (1:1 molar ratio), 0.8 μM (1:4 ratio), 3.2 μM (1:16 ratio), 12.5 μM (1:62.5 ratio), 50 μM (1:200 ratio) and 200 μM (1:1000 ratio) were prepared in copper-minus AS medium. Two-fold dilution series of these mixtures were then prepared in 100 μL aliquots of copper-minus AS medium in flat-bottomed 96-well microtiter plates. A suspension of P. capsici zoospores in Chelex-treated water at 5×10^4 spores per mL was prepared as in Example 28. Microtiter plates were inoculated with 100 μL of the spore suspension and incubated at 25° C. for 48 h before assessing fungal growth by measuring light scattering in a NepheloStar plate reader.
Growth inhibition was determined by comparing growth in the presence of copper-hydrazone mixture with growth in control wells lacking the copper-hydrazone mixture. EC50 values were calculated from dose-response curves, and are expressed as the amounts of hydrazone or copper in each test mixture at the rates providing 50% inhibition of growth as compared to a control lacking the copper-hydrazone mixture.

Phytophthora infestans [7] = format: in vivo, Phytophthora infestans on tomato (Outdoor Girl)

Compound: O=C(N/N=C/c1cc(Cl)cc(Cl)c1O)c1ccccc1 [Example 16]
- inhibition at 0.1 µg/mL [1]: 19.9%
- % Inhn Plus copper Observed (Phytophthora capsici [2]; copper-plus AS medium (CuCl2, 50 μM)): 91.9%
- inhibition of growth at 0.05 µg/mL (Phytophthora capsici [2]; Phytophthora capsici, copper-minus AS medium, read-out: % Inhn Minus copper Observed): 0%
- TLB % Control (Phytophthora infestans [3]): 94.0%
- % Inhn. Plus copper Observed (Ustilago maydis; copper-plus medium (CuCl2, 10 μM)): 80.0%
- inhibition of growth at 1 µg/mL (Ustilago maydis; Mycosarcoma maydis, copper-minus medium, read-out: % Inhn. Minus copper Observed): 0%
- inhibition of growth at 0.05 µg/mL ([4]; Parastagonospora nodorum, 72 h, copper-minus medium, read-out: LEPTNO % Inhn. Minus Copper Observed): 0%
- LEPTNO % Inhn. Plus Copper Observed ([4]; copper-plus medium (CuCl2.2H2O)): 97.1%
- inhibition at 0.05 µg/mL ([5]; Colby formula, CuCl2, read-out: % Inhibition Plus copper Predicted): 35.8%
- inhibition at 0.05 µg/mL ([5]; copper-minus medium, 90 h, read-out: % Inhibition Minus copper Observed): 35.8%
- inhibition at 0.05 µg/mL ([5]; copper-plus medium CuCl2, 90 h, read-out: % Inhibition Plus copper Observed): 93.6%
- EC50 (Phytophthora capsici [6]; Hydrazone without CuCl2, read-out: Hydrazone EC50): 143 nM
- EC50 (Phytophthora capsici [6]; Hydrazone:Cu ratio 1 to 1, read-out: Hydrazone EC50 (amount of hydrazone in mixture at EC50)): 71.1 nM
- EC50 (Phytophthora capsici [6]; Hydrazone:Cu ratio 1 to 4, read-out: Hydrazone EC50 (amount of hydrazone in mixture at EC50)): 47.1 nM
- EC50 (Phytophthora capsici [6]; Hydrazone:Cu ratio 1 to 16, read-out: Hydrazone EC50 (amount of hydrazone in mixture at EC50)): 27.5 nM
- EC50 (Phytophthora capsici [6]; Hydrazone:Cu ratio 1 to 62.5, read-out: Hydrazone EC50 (amount of hydrazone in mixture at EC50)): 16.6 nM
- EC50 (Phytophthora capsici [6]; Hydrazone:Cu ratio 1 to 250, read-out: Hydrazone EC50 (amount of hydrazone in mixture at EC50)): 7.6 nM
- EC50 (Phytophthora capsici [6]; Hydrazone:Cu ratio 1 to 1000, read-out: Hydrazone EC50 (amount of hydrazone in mixture at EC50)): 4.6 nM
- % Control of Tomato Late Blight (Phytophthora infestans [7]; hydrazone 10 μM + CuCl2 10 μM): 33.5%
- % Control of Tomato Late Blight, predicted (in brackets, Colby) (Phytophthora infestans [7]; hydrazone 10 μM + CuCl2 10 μM): 3.1%
- % Control of Tomato Late Blight (Phytophthora infestans [7]; hydrazone 10 μM + CuCl2 50 μM): 39.7%
- % Control of Tomato Late Blight, predicted (in brackets, Colby) (Phytophthora infestans [7]; hydrazone 10 μM + CuCl2 50 μM): 9.9%
- % Control of Tomato Late Blight (Phytophthora infestans [7]; hydrazone 10 μM + CuCl2 200 μM): 69.0%
- % Control of Tomato Late Blight, predicted (in brackets, Colby) (Phytophthora infestans [7]; hydrazone 10 μM + CuCl2 200 μM): 39.2%
- % Control of Tomato Late Blight (Phytophthora infestans [7]; hydrazone 10 μM + CuCl2 400 μM): 75.7%
- % Control of Tomato Late Blight, predicted (in brackets, Colby) (Phytophthora infestans [7]; hydrazone 10 μM + CuCl2 400 μM): 56.6%
- % Control of Tomato Late Blight (Phytophthora infestans [7]; hydrazone 10 μM + CuCl2 800 μM): 94.2%
- % Control of Tomato Late Blight, predicted (in brackets, Colby) (Phytophthora infestans [7]; hydrazone 10 μM + CuCl2 800 μM): 70.7%
- % Control of Tomato Late Blight (Phytophthora infestans [7]; hydrazone 10 μM + CuSO4 10 μM): 26.3%
- % Control of Tomato Late Blight, predicted (in brackets, Colby) (Phytophthora infestans [7]; hydrazone 10 μM + CuSO4 10 μM): 3.1%
- % Control of Tomato Late Blight (Phytophthora infestans [7]; hydrazone 10 μM + CuSO4 50 μM): 28.1%
- % Control of Tomato Late Blight, predicted (in brackets, Colby) (Phytophthora infestans [7]; hydrazone 10 μM + CuSO4 50 μM): 6.2%
- % Control of Tomato Late Blight (Phytophthora infestans [7]; hydrazone 10 μM + CuSO4 200 μM): 56.0%
- % Control of Tomato Late Blight, predicted (in brackets, Colby) (Phytophthora infestans [7]; hydrazone 10 μM + CuSO4 200 μM): 50.4%
- % Control of Tomato Late Blight (Phytophthora infestans [7]; hydrazone 10 μM + CuSO4 400 μM): 77.3%
- % Control of Tomato Late Blight, predicted (in brackets, Colby) (Phytophthora infestans [7]; hydrazone 10 μM + CuSO4 400 μM): 76.4%
- % Control of Tomato Late Blight (Phytophthora infestans [7]; hydrazone 10 μM + CuSO4 800 μM): 72.2%
- % Control of Tomato Late Blight, predicted (in brackets, Colby) (Phytophthora infestans [7]; hydrazone 10 μM + CuSO4 800 μM): 83.1%
- % Control of Tomato Late Blight (Phytophthora infestans [7]; hydrazone 10 μM alone, no copper): 1.5%
- % Control of Tomato Late Blight (Phytophthora infestans [7]; hydrazone 50 μM + CuCl2 10 μM): 41.9%
- % Control of Tomato Late Blight, predicted (in brackets, Colby) (Phytophthora infestans [7]; hydrazone 50 μM + CuCl2 10 μM): 12.8%
- % Control of Tomato Late Blight (Phytophthora infestans [7]; hydrazone 50 μM + CuCl2 50 μM): 63.0%
- % Control of Tomato Late Blight, predicted (in brackets, Colby) (Phytophthora infestans [7]; hydrazone 50 μM + CuCl2 50 μM): 18.8%
- % Control of Tomato Late Blight (Phytophthora infestans [7]; hydrazone 50 μM + CuCl2 200 μM): 91.5%
- % Control of Tomato Late Blight, predicted (in brackets, Colby) (Phytophthora infestans [7]; hydrazone 50 μM + CuCl2 200 μM): 45.2%
- % Control of Tomato Late Blight (Phytophthora infestans [7]; hydrazone 50 μM + CuCl2 400 μM): 91.7%
- % Control of Tomato Late Blight, predicted (in brackets, Colby) (Phytophthora infestans [7]; hydrazone 50 μM + CuCl2 400 μM): 60.9%
- % Control of Tomato Late Blight (Phytophthora infestans [7]; hydrazone 50 μM + CuCl2 800 μM): 98.3%
- % Control of Tomato Late Blight, predicted (in brackets, Colby) (Phytophthora infestans [7]; hydrazone 50 μM + CuCl2 800 μM): 73.6%
- % Control of Tomato Late Blight (Phytophthora infestans [7]; hydrazone 50 μM + CuSO4 10 μM): 56.8%
- % Control of Tomato Late Blight, predicted (in brackets, Colby) (Phytophthora infestans [7]; hydrazone 50 μM + CuSO4 10 μM): 12.8%
